Holding throughout (test): Inhibitory effect on growth of human cancer cells (in vitro), WST-8
Assay type in all cases: cell-based
On the technique in general: Tetrazolium dyes change colour on reduction, which living cells bring about.

The test system of assay [1] is human colorectal cancer HCT116 cells. The conditions noted are these: 96 hours culture. As to the method: (§1) Each pyrrole compound of the present invention was studied for its effects on the growth of human non-small cell lung cancer A549 cells and human colorectal cancer HT-29 cells and HCT116 cells. The cells of each line were suspended in an RPMI1640 medium supplemented with 10% fetal bovine serum and inoculated at a cell density of 1000 cells/50 μL/well to a 96-well plate. After overnight culture, each compound diluted with a medium was added thereto at a concentration of 50 μL/well, and the cells were further cultured for 96 hours. After the completion of culture, WST-8 (Seikagaku Corp.) was added thereto at a concentration of 10 μL/well, and the cells were cultured at 37° C. for approximately 1 hour under 5% CO2 conditions, followed by measurement of absorbance at 450 nm.

The subject of assay [2] is human colorectal cancer HT-29 cells. The note with it: 96 hours culture, read-out: IC50 (nM) HT29. As to the method:
as §1

Assay [3] concerns human non-small cell lung cancer A549 cells. The conditions noted are these: 96 hours culture. Here is the method:
as §1

This note sets out measurements from patent publication US20140343017A1, “PYRROLE COMPOUND” (Kabushiki Kaisha Yakult Honsha, priority 2012, published 2014).

The structures appear in SMILES notation. Structures can show the parent of a compound that is named as a salt. Where two headings read alike, the source gives them in different places.

As to `CCc1nnc(-c2c(C)c(C(=O)c3cccc(Br)c3)c(C)n2CCOC(C)=O)o1` [Compound 235, 2-(3-(3-bromobenzoyl)-2,4-dimethyl-5-(5-ethyl-1,3,4-oxadiazol-2-yl)-1H-pyrrol-1-yl)ethyl acetate], the IC50 – broadly, the concentration needed to halve the response being measured – came out at 239 nM in assay [1] (Homo sapiens, HCT-116, 96 h); 172 nM in assay [2] (Homo sapiens, HT-29, 96 h); 738 nM in assay [3] (Homo sapiens, A549, 96 h).

Turning to `Cc1[nH]c(-c2nnc(C3CC3)o2)c(C)c1C(=O)c1ccc(OCCN)c(Br)c1` [Compound 256, (4-(2-aminoethoxy)-3-bromophenyl)(5-(5-cyclopropyl-1,3,4-oxadiazol-2-yl)-2,4-dimethyl-1H-pyrrol-3-yl)methanone], the IC50 turned out to be 43.2 nM in assay [1] (Homo sapiens, HCT-116, 96 h); 36.2 nM in assay [2] (Homo sapiens, HT-29, 96 h); 95.9 nM in assay [3] (Homo sapiens, A549, 96 h).

Turning to `COc1ccc(C(=O)c2c(C(C)O)[nH]c(-c3nnn(CCOC(C)=O)n3)c2C)cc1Br` (stereo not drawn) [Compound 130, 2-(5-(4-(3-bromo-4-methoxybenzoyl)-5-(1-hydroxyethyl)-3-methyl-1H-pyrrol-2-yl)-2H-tetrazol-2-yl)ethyl acetate], the IC50 in assay [1] (Homo sapiens, HCT-116, 96 h) stood at 36.9 nM; in assay [2] (Homo sapiens, HT-29, 96 h), 30.7 nM; in assay [3] (Homo sapiens, A549, 96 h) it was 35.5 nM.

With `CCc1nnc(-c2c(C)c(C(=O)c3cccc(Br)c3)c(C)n2C(=O)COC(C)=O)o1` [Compound 226, 2-(3-(3-bromobenzoyl)-5-(5-ethyl-1,3,4-oxadiazol-2-yl)-2,4-dimethyl-1H-pyrrol-1-yl)-2-oxoethyl acetate], the IC50 in assay [1] (Homo sapiens, HCT-116, 96 h) was 0.4 nM; in assay [2] (Homo sapiens, HT-29, 96 h) it was 0.3 nM; in assay [3] (Homo sapiens, A549, 96 h), 0.7 nM.

Regarding `CCc1nnc(-c2[nH]c(C)c(C(=O)c3ccc(OC)c(Br)c3)c2C)o1` [Compound 197, (3-bromo-4-methoxyphenyl)(5-(5-ethyl-1,3,4-oxadiazol-2-yl)-2,4-dimethyl-1H-pyrrol-3-yl)methanone], the IC50 in assay [1] (Homo sapiens, HCT-116, 96 h) was 1.4 nM; in assay [2] (Homo sapiens, HT-29, 96 h), 0.9 nM; in assay [3] (Homo sapiens, A549, 96 h) it was 3.9 nM.

Consider `Cc1[nH]c(-c2nnc(C3CC3C)o2)c(C)c1C(=O)c1cccc(Br)c1` (stereo not drawn) [Compound 190, (3-bromophenyl) (2,4-dimethyl-5-(5-(2-methylcyclopropyl)-1,3,4-oxadiazol-2-yl)-1H-pyrrol-3-yl)methanone], for which the IC50 in assay [1] (Homo sapiens, HCT-116, 96 h) came out at 219 nM; in assay [2] (Homo sapiens, HT-29, 96 h), 192 nM; in assay [3] (Homo sapiens, A549, 96 h), 266 nM.

In the case of `CNC(=O)c1[nH]c(-c2nnn(CCOC(C)=O)n2)c(C)c1C(=O)c1ccc(OC)c(Br)c1` [Compound 295, 2-(5-(4-(3-bromo-4-methoxybenzoyl)-3-methyl-5-(methylcarbamoyl)-1H-pyrrol-2-yl)-2H-tetrazol-2-yl)ethyl acetate], the IC50 amounted to 957 nM in assay [1] (Homo sapiens, HCT-116, 96 h); 460 nM in assay [2] (Homo sapiens, HT-29, 96 h); 509 nM in assay [3] (Homo sapiens, A549, 96 h).

For `Cc1[nH]c(-c2nnc(C3CCC3)o2)c(C)c1C(=O)c1cccc(Br)c1` [Compound 179, (3-bromophenyl) (5-(5-cyclobutyl-1,3,4-oxadiazol-2-yl)-2,4-dimethyl-1H-pyrrol-3-yl)methanone], the IC50 in assay [1] (Homo sapiens, HCT-116, 96 h) is 329 nM; in assay [2] (Homo sapiens, HT-29, 96 h), 336 nM; in assay [3] (Homo sapiens, A549, 96 h) it was 800 nM.

In the case of `CCn1nnc(-c2[nH]c(C)c(C(=O)c3ccc(OCCN)c(Br)c3)c2C)n1` [Compound 302, (4-(2-aminoethoxy)-3-bromophenyl)(5-(2-ethyl-2H-tetrazol-5-yl)-2,4-dimethyl-1H-pyrrol-3-yl)methanone hydrochloride], the IC50 in assay [1] (hydrochloride) amounted to 35 nM; in assay [2] (hydrochloride), 33 nM; in assay [3] (hydrochloride), 47.4 nM.

For `Cc1[nH]c(-c2nnc(C3(C)CC3)o2)c(C)c1C(=O)c1cccc(Br)c1` [Compound 189, (3-bromophenyl)(2,4-dimethyl-5-(5-(1-methylcyclopropyl)-1,3,4-oxadiazol-2-yl)-1H-pyrrol-3-yl)methanone], the IC50 was 199 nM in assay [1] (Homo sapiens, HCT-116, 96 h); 135 nM in assay [2] (Homo sapiens, HT-29, 96 h); 164 nM in assay [3] (Homo sapiens, A549, 96 h).

On to `Cc1[nH]c(-c2nnc(C(C)C)o2)c(C)c1C(=O)c1cccc(Br)c1` [Compound 178, (3-bromophenyl) (5-(5-isopropyl-1,3,4-oxadiazol-2-yl)-2,4-dimethyl-1H-pyrrol-3-yl)methanone], for which the IC50 in assay [1] (Homo sapiens, HCT-116, 96 h) came to 45.1 nM; in assay [2] (Homo sapiens, HT-29, 96 h), 36.9 nM; in assay [3] (Homo sapiens, A549, 96 h), 71.8 nM.

As to `Cc1c(-c2nnn(CCO)n2)[nH]c(C=O)c1C(=O)c1cccc(Br)c1` [Compound 117, 3-(3-bromobenzoyl)-5-(2-(2-hydroxyethyl)-2H-tetrazol-5-yl)-4-methyl-1H-pyrrole-2-carboaldehyde], the IC50 in assay [1] (Homo sapiens, HCT-116, 96 h) was 118 nM; in assay [2] (Homo sapiens, HT-29, 96 h), 42.1 nM; in assay [3] (Homo sapiens, A549, 96 h) it was 83 nM.

Consider `CCc1nnc(-c2c(C)c(C(=O)c3cccc(Br)c3)c(C)n2S(C)(=O)=O)o1` [Compound 225, (3-bromophenyl)(5-(5-ethyl-1,3,4-oxadiazol-2-yl)-2,4-dimethyl-1-(methylsulfonyl)-1H-pyrrol-3-yl)methanone], for which the IC50 in assay [1] (Homo sapiens, HCT-116, 96 h) is 9.2 nM; in assay [2] (Homo sapiens, HT-29, 96 h), 6.6 nM; in assay [3] (Homo sapiens, A549, 96 h), 9.7 nM.

Consider `Cc1c(-c2nnn(CCO)n2)[nH]c(C(F)F)c1C(=O)c1cccc(Br)c1` [Compound 119, (3-bromophenyl)(2-(difluoromethyl)-5-(2-(2-hydroxyethyl)-2H-tetrazol-5-yl)-4-methyl-1H-pyrrol-3-yl)methanone], for which the IC50 in assay [1] (Homo sapiens, HCT-116, 96 h) was 145 nM; in assay [2] (Homo sapiens, HT-29, 96 h), 42.6 nM; in assay [3] (Homo sapiens, A549, 96 h), 50.1 nM.

With `CC(=O)OCCn1nnc(-c2[nH]c(C#N)c(C(=O)c3cccc(Br)c3)c2C)n1` [Compound 132, 2-(5-(4-(3-bromobenzoyl)-5-cyano-3-methyl-1H-pyrrol-2-yl)-2H-tetrazol-2-yl)ethyl acetate], the IC50 in assay [1] (Homo sapiens, HCT-116, 96 h) was 167 nM; in assay [2] (Homo sapiens, HT-29, 96 h), 179 nM; in assay [3] (Homo sapiens, A549, 96 h) it was 248 nM.

Turning to `Cc1[nH]c(-c2nnn(CCO)n2)c(Br)c1C(=O)c1cccc(Br)c1` [Compound 288, (4-bromo-5-(2-(2-hydroxyethyl)-2H-tetrazol-5-yl)-2-methyl-1H-pyrrol-3-yl)(3-bromophenyl)methanone], the IC50 came out at 7.1 nM in assay [1] (Homo sapiens, HCT-116, 96 h); 6.7 nM in assay [2] (Homo sapiens, HT-29, 96 h); 8.2 nM in assay [3] (Homo sapiens, A549, 96 h).

In the case of `Cc1[nH]c(-c2nnn(CCOC(=O)CN)n2)c(C)c1C(=O)c1cccc(Br)c1` [Compound 152, 2-(5-(4-(3-bromobenzoyl)-3,5-dimethyl-1H-pyrrol-2-yl)-2H-tetrazol-2-yl)ethyl 2-aminoacetate], the IC50 in assay [1] (Homo sapiens, HCT-116, 96 h) is 7.8 nM; in assay [2] (Homo sapiens, HT-29, 96 h), 8.3 nM; in assay [3] (Homo sapiens, A549, 96 h), 10.8 nM.

Regarding `Cc1[nH]c(-c2nnc(C(F)F)o2)c(C)c1C(=O)c1cccc(Br)c1` [Compound 186, (3-bromophenyl)(5-(5-(difluoromethyl)-1,3,4-oxadiazol-2-yl)-2,4-dimethyl-1H-pyrrol-3-yl)methanone], the IC50 in assay [1] (Homo sapiens, HCT-116, 96 h) is 64.1 nM; in assay [2] (Homo sapiens, HT-29, 96 h), 41.7 nM; in assay [3] (Homo sapiens, A549, 96 h), 289 nM.

`COc1ccc(Br)cc1C(=O)c1c(CO)[nH]c(-c2nnc(C3CC3)o2)c1C` [Compound 259, (5-bromo-2-methoxyphenyl)(5-(5-cyclopropyl-1,3,4-oxadiazol-2-yl)-2-(hydroxymethyl)-4-methyl-1H-pyrrol-3-yl)methanone]: the IC50 in assay [1] (Homo sapiens, HCT-116, 96 h) was determined as 39.2 nM; in assay [2] (Homo sapiens, HT-29, 96 h), 37.2 nM; in assay [3] (Homo sapiens, A549, 96 h) it was 69.5 nM.

As for `Cc1[nH]c(-c2nnc(CCCl)o2)c(C)c1C(=O)c1cccc(Br)c1` [Compound 174, (3-bromophenyl)(5-(5-(2-chloroethyl)-1,3,4-oxadiazol-2-yl)-2,4-dimethyl-1H-pyrrol-3-yl)methanone], the IC50 was 44.6 nM in assay [1] (Homo sapiens, HCT-116, 96 h); 38.6 nM in assay [2] (Homo sapiens, HT-29, 96 h); 77.1 nM in assay [3] (Homo sapiens, A549, 96 h).

Regarding `COc1ccc(Br)cc1C(=O)c1c(C)[nH]c(-c2nnc(COC(C)=O)o2)c1C` [Compound 202, (5-(4-(5-bromo-2-methoxybenzoyl)-3,5-dimethyl-1H-pyrrol-2-yl)-1,3,4-oxadiazol-2-yl)methyl acetate], the IC50 in assay [1] (Homo sapiens, HCT-116, 96 h) was 62.4 nM; in assay [2] (Homo sapiens, HT-29, 96 h), 50.5 nM; in assay [3] (Homo sapiens, A549, 96 h) it was 127 nM.

Consider `Cc1c(-c2nnc(C3CC3)o2)[nH]c(CO)c1C(=O)c1cccc(Br)c1` [Compound 264, (3-bromophenyl)(5-(5-cyclopropyl-1,3,4-oxadiazol-2-yl)-2-(hydroxymethyl)-4-methyl-1H-pyrrol-3-yl)methanone], for which the IC50 was found to be 1.8 nM in assay [1] (Homo sapiens, HCT-116, 96 h); 1.8 nM in assay [2] (Homo sapiens, HT-29, 96 h); 8.2 nM in assay [3] (Homo sapiens, A549, 96 h).

On to `C=Cc1nnc(-c2[nH]c(C)c(C(=O)c3cccc(Br)c3)c2C)o1` [Compound 206, (3-bromophenyl)(2,4-dimethyl-5-(5-vinyl-1,3,4-oxadiazol-2-yl)-1H-pyrrol-3-yl)methanone], for which the IC50 in assay [1] (Homo sapiens, HCT-116, 96 h) worked out at 9.5 nM; in assay [2] (Homo sapiens, HT-29, 96 h), 8.8 nM; in assay [3] (Homo sapiens, A549, 96 h) it was 31.5 nM.

As for `Cc1[nH]c(-c2nnn(CCO)n2)c(C)c1C(=O)c1ccc(OCCN)c(Br)c1` [Compound 168, (4-(2-aminoethoxy)-3-bromophenyl)(5-(2-(2-hydroxyethyl)-2H-tetrazol-5-yl)-2,4-dimethyl-1H-pyrrol-3-yl)methanone], the IC50 came out at 506 nM in assay [1] (Homo sapiens, HCT-116, 96 h); 670 nM in assay [2] (Homo sapiens, HT-29, 96 h); 886 nM in assay [3] (Homo sapiens, A549, 96 h).

Turning to `COc1ccc(C(=O)c2c(C#N)[nH]c(-c3nnn(CCOC(C)=O)n3)c2C)cc1Br` [Compound 138, 2-(5-(4-(3-bromo-4-methoxybenzoyl)-5-cyano-3-methyl-1H-pyrrol-2-yl)-2H-tetrazol-2-yl)ethyl acetate], the IC50 in assay [1] (Homo sapiens, HCT-116, 96 h) is 167 nM; in assay [2] (Homo sapiens, HT-29, 96 h), 170 nM; in assay [3] (Homo sapiens, A549, 96 h), 239 nM.
